Data reported in patent publication US20250320193A1, “OXOISOINDOLINYL SUBSTITUTED PIPERIDINEDIONE DERIVATIVE AND USE THEREOF” (GLUETACS THERAPEUTICS (SHANGHAI) CO., LTD., priority 2022, published 2025).

How the values were obtained:
[1] = target: human Cereblon WT GST-tagged protein (Homo sapiens (Human), UniProt Q96SW2); experiment: CRBN-binding affinity, HTRF (CEREBLON BINDING kit, CISBIO); conditions: HTRF inhibitory activity
Summary of the method: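 Compounds were mixed with GST-tagged human Cereblon WT protein, then with Thalidomide-Red tracer and GST Eu antibody, and binding was read by HTRF. Inhibition rate was calculated from 620 nm emission relative to blank control wells (no protein) and solvent control wells.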

IKZF3 = IKZF3 (Homo sapiens (Human), UniProt Q96SW2+Q9UKT9); experiment: Western blot, substrate protein expression in hPBMC: IKZF3; type: cell-based; conditions: for substrate protein remaining % IKZF3: hPBMC, compound 500 nM, 24 hours, Western blot
Summary of the method: (§1)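 hPBMC, 1×10^6 cells/mL, 24 h compound exposure; RIPA lysis, BCA protein assay, SDS-PAGE, NC membrane immunoblot. Densitometry vs internal control → % protein remaining; degradation % = 100% − remaining; DC50 = conc. at 50% of DMSO band signal.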

GSPT1 = GSPT1 (Homo sapiens (Human), UniProt P15170+Q96SW2); experiment: Western blot, substrate protein expression in hPBMC: GSPT1; type: cell-based; conditions: for substrate protein remaining % GSPT1: hPBMC, compound 500 nM, 24 hours, Western blot
Summary of the method: as §1

IKZF1 = IKZF1 (Homo sapiens (Human), UniProt Q13422+Q96SW2); experiment: Western blot, substrate protein expression in hPBMC: IKZF1; type: cell-based; conditions: for substrate protein remaining % IKZF1: hPBMC, compound 500 nM, 24 hours, Western blot
Summary of the method: as §1

[2] = system: H146 cells (human small cell lung carcinoma cells); experiment: Tumor cell proliferation inhibition, CCK-8; type: cell-based; conditions: NCI-H146, H146 cells, CCK-8, read-out: inhibitory activity (IC50, nM) H146
Method: (§2) The tumor cells used herein were cultured in a cell culture medium listed in table 2 at 37° C. in an incubator with 5% CO2. Prior to experimentation, all cells used were correctly identified by STR profiling, and tested negative for mycoplasma through routine screenings.
(§3) IC50 values of the compounds of the present disclosure (including the compounds in Table 1 and the Examples 1-305 compounds) were measured using the Meilun Cell Counting Kit-8 kit from Dalian Meilun Biotech Co., Ltd. Assay details are as follows: tumor cells were seeded in a 96-well plate at a density listed in Table 5. After 24 h, 100 μL of the inoculated cells were treated with 0.5 μL of the compounds of the present disclosure (including the compounds in Table 1 and the Examples 1-305 compounds) at 10 different successively decreasing concentrations (starting at the highest concentration of 10 μM; 5-fold serial dilutions). After the cells were treated with the compounds of the present disclosure for a period of time, the cell viability detection reagent was added to the culture medium for cell viability assessment according to the instructions provided with the CCK-8 kit. […] The growth inhibition of the compounds of the present disclosure on cells was plotted by Prism Graphpad software, and the IC50 values of the compounds of the present disclosure were calculated therefrom.

[3] = system: MM.1S cells (human multiple myeloma cells); experiment: Tumor cell proliferation inhibition, CCK-8; type: cell-based; conditions: MM1.S, MM.1S cells, CCK-8, read-out: inhibitory activity (IC50, nM) MM.1S
Method: as §2, §3

[4] = system: MDA-MB-231 cells (human breast adenocarcinoma cells); experiment: Tumor cell proliferation inhibition, CCK-8; type: cell-based; conditions: MDA-MB-231 cells, CCK-8, read-out: inhibitory activity (IC50, nM) MDA-MB-231
Method: as §2, §3

[5] = system: TMD8 cells (human diffuse large B-cell lymphoma cells); experiment: Tumor cell proliferation inhibition, CCK-8; type: cell-based; conditions: TMD8 cells, CCK-8, read-out: inhibitory activity (IC50, nM) TMD8
Method: as §2, §3

human Cereblon WT GST-tagged protein, sequence (Q96SW2 whole entry): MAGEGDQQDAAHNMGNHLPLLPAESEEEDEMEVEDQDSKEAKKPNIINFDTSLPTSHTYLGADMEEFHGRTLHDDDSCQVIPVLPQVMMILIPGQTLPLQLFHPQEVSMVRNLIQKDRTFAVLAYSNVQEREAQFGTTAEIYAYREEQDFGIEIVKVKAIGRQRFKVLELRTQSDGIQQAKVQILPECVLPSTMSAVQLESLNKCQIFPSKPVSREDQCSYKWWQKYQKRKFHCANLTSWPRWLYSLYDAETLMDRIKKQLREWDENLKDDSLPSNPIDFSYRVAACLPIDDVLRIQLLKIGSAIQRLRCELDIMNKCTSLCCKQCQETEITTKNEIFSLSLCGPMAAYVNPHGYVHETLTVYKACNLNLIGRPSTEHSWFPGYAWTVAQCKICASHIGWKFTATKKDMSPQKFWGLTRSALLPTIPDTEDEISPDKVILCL
IKZF3, sequence (Q9UKT9 whole entry): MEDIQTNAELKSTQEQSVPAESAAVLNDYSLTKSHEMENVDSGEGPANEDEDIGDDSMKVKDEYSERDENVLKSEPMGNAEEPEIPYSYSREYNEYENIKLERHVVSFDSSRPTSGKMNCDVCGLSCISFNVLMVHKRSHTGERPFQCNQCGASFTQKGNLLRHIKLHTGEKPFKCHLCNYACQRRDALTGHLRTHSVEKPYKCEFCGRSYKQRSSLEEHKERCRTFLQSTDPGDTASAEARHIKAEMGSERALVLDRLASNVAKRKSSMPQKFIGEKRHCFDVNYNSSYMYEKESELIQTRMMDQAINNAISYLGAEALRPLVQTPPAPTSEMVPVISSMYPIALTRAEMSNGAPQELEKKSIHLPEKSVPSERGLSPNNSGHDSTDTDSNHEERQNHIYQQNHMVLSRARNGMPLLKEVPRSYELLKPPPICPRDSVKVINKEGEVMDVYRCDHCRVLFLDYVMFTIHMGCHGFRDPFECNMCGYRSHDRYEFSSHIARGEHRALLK
IKZF3, sequence (Q96SW2 whole entry): as the sequence (Q96SW2 whole entry) above
IKZF3, sequence (Q16531 whole entry partner): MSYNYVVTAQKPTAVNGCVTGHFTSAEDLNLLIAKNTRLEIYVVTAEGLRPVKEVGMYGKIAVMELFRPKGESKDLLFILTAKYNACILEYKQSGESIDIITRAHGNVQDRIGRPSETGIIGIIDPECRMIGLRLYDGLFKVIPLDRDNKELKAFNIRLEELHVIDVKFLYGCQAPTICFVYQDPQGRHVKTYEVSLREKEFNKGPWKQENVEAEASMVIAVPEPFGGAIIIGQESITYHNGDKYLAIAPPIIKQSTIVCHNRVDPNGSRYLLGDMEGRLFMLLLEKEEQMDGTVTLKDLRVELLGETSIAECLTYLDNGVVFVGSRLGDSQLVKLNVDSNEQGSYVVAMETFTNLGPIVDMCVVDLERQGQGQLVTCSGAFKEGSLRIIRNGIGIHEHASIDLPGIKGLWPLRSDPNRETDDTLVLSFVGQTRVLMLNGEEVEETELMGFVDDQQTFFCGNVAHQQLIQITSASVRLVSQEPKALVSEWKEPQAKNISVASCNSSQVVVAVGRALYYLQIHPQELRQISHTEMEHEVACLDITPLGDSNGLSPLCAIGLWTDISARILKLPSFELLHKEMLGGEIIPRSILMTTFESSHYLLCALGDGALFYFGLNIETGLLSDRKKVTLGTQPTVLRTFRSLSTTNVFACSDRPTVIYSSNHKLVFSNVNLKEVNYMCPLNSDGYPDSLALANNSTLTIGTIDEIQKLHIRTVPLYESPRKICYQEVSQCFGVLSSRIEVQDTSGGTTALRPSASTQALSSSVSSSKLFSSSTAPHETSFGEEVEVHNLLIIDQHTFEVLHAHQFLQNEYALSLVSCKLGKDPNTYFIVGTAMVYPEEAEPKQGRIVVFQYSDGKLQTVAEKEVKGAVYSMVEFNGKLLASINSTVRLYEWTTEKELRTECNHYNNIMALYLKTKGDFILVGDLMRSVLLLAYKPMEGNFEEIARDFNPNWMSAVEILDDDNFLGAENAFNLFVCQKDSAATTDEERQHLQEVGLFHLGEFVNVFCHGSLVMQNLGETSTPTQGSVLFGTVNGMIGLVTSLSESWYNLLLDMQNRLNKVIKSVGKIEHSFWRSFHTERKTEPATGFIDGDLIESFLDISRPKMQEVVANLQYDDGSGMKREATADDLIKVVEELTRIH
GSPT1, sequence (P15170 whole entry): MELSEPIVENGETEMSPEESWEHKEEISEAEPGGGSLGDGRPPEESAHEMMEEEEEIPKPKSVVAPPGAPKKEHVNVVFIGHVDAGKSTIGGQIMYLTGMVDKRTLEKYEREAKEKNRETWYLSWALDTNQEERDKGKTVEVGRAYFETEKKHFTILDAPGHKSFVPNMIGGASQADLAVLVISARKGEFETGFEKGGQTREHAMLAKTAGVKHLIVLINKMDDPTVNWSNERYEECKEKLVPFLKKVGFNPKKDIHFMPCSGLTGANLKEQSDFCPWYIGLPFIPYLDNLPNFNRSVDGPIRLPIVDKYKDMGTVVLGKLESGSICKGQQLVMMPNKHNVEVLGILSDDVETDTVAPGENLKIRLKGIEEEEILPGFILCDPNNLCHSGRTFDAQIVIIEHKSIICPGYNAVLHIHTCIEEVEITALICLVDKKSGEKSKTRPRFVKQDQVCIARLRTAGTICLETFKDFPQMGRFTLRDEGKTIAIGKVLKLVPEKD
GSPT1, sequence (Q96SW2 whole entry): as the sequence (Q96SW2 whole entry) above
GSPT1, sequence (Q16531 whole entry partner): as the sequence (Q16531 whole entry partner) above
IKZF1, sequence (Q13422 whole entry): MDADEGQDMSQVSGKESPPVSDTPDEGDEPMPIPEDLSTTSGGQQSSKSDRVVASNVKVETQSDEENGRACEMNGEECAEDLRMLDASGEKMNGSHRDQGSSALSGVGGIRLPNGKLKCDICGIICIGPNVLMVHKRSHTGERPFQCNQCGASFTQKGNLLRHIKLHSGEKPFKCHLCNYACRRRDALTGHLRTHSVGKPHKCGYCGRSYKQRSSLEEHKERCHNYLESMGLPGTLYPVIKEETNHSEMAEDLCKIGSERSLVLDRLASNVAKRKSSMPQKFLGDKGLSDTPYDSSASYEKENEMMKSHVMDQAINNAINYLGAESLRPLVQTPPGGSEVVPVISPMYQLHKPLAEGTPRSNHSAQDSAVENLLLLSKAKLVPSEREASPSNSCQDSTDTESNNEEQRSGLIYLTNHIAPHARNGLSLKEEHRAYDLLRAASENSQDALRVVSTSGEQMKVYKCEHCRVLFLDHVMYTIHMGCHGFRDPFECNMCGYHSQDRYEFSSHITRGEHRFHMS
IKZF1, sequence (Q96SW2 whole entry): as the sequence (Q96SW2 whole entry) above
IKZF1, sequence (Q16531 whole entry partner): as the sequence (Q16531 whole entry partner) above

IC50 [1]	IC50 [2]	IC50 [3]	IC50 [5]	SMILES	substrate protein remaining % IKZF3 (IKZF3)	concentration at which IKZF3 protein was significantly degraded (Western blot, FIG. 1) (IKZF3; hPBMCs)	substrate protein remaining % GSPT1 (GSPT1)	concentration at which GSPT1 protein was clearly/significantly degraded (Western blot, FIG. 1) (GSPT1; hPBMCs)	substrate protein remaining % IKZF1 (IKZF1)	concentration at which IKZF1 protein was significantly degraded (Western blot, FIG. 1) (IKZF1; hPBMCs)	IC50 [4]
500 to 1000 nM	100 to 500 nM	50 to 100 nM	–	O=C1CCC(N2Cc3cc(CN4CC5CN(C(c6ccccc6)c6ccccc6)CC5C4)c(F)cc3C2=O)C(=O)N1 (stereo not shown) [GT-06051, 3-(5-((5-benzhydrylhexahydropyrrolo[3,4-c]pyrrol-2 (1H)-yl)methyl)-6-fluoro-1-oxoisoindolin-2-yl)piperidine-2,6-dione]	B (B represents substrate protein remaining % > 50%)	–	A (A represents 0% ≤ substrate protein remaining % ≤ 50%)	–	B (B represents substrate protein remaining % > 50%)	–	–
< 500 nM	100 to 500 nM	10 to 50 nM	–	O=C1CCC(N2Cc3cc(C(=O)N4CCN(C(c5ccccc5F)c5ccccc5F)CC4)ccc3C2=O)C(=O)N1 (stereo not shown) [GT-06104, 3-(5-(4-(bis(2-fluorophenyl)methyl)piperazine-1-carbonyl)-1-oxoisoindolin-2-yl)piperidine-2,6-dione]	B (B represents substrate protein remaining % > 50%)	–	A (A represents 0% ≤ substrate protein remaining % ≤ 50%)	–	A (A represents 0% ≤ substrate protein remaining % ≤ 50%)	–	500 to 1000 nM
–	100 to 500 nM	50 to 100 nM	500 to 1000 nM	O=C1CCC(N2C(=O)c3ccc(CN4CCN(C(c5cccc(F)c5)c5cccc(F)c5)CC4)cc3C2=O)C(=O)N1 (stereo not shown) [GT-06118, 5-((4-(bis(3-fluorophenyl)methyl)piperazin-1-yl)methyl)-2-(2,6-dioxopiperidin-3-yl) isoindoline-1,3-dione]	A (A represents 0% ≤ substrate protein remaining % ≤ 50%)	–	A (A represents 0% ≤ substrate protein remaining % ≤ 50%)	–	A (A represents 0% ≤ substrate protein remaining % ≤ 50%)	–	–
–	–	10 to 50 nM	–	O=C1CCC(N2Cc3cc(CN4CCN(C(c5ccc(C(F)(F)F)cc5)c5ccc(C(F)(F)F)cc5)CC4)ccc3C2=O)C(=O)N1 (stereo not shown) [GT-06199, 3-(5-((4-(bis(4-(trifluoromethyl)phenyl)methyl)piperazin-1-yl)methyl)-1-oxoisoindolin-2-yl)piperidine-2,6-dione]	A (A represents 0% ≤ substrate protein remaining % ≤ 50%)	–	A (A represents 0% ≤ substrate protein remaining % ≤ 50%)	–	A (A represents 0% ≤ substrate protein remaining % ≤ 50%)	–	–
500 to 1000 nM	–	–	–	O=C1CCC(N2Cc3cc(CN4CCN(C(c5ccccc5)c5ccc(Br)cc5)CC4)ccc3C2=O)C(=O)N1 (stereo not shown) [GT-06640, 3-(5-((4-((4-bromophenyl) (phenyl)methyl)piperazin-1-yl)methyl)-1-oxoisoindolin-2-yl)piperidine-2,6-dione]	A (A represents 0% ≤ substrate protein remaining % ≤ 50%)	–	A (A represents 0% ≤ substrate protein remaining % ≤ 50%)	–	A (A represents 0% ≤ substrate protein remaining % ≤ 50%)	–	–

More lines, now with the values behind:

SMILES	IC50 [1]	IC50 [2]	IC50 [3]	IC50 [5]	substrate protein remaining % IKZF3 (IKZF3)	concentration at which IKZF3 protein was significantly degraded (Western blot, FIG. 1) (IKZF3; hPBMCs)	substrate protein remaining % GSPT1 (GSPT1)	concentration at which GSPT1 protein was clearly/significantly degraded (Western blot, FIG. 1) (GSPT1; hPBMCs)	substrate protein remaining % IKZF1 (IKZF1)	concentration at which IKZF1 protein was significantly degraded (Western blot, FIG. 1) (IKZF1; hPBMCs)	IC50 [4]
O=C1CCC(N2Cc3cc(CN4CCC(N(c5ccccc5)c5ccccn5)CC4)ccc3C2=O)C(=O)N1 (stereo not shown) [GT-04525, 3-(1-oxo-5-((4-(phenyl(pyridin-2-yl)amino)piperidin-1-yl)methyl)isoindolin-2-yl)piperidine-2,6-dione]	< 500 nM	1 to 10 nM	< 1 nM	1 to 10 nM	A (A represents 0% ≤ substrate protein remaining % ≤ 50%)	below 50 nM	A (A represents 0% ≤ substrate protein remaining % ≤ 50%)	below 50 nM	A (A represents 0% ≤ substrate protein remaining % ≤ 50%)	below 50 nM	1 to 10 nM
O=C1CCC(N2Cc3cc(CCN4CCN(C(c5ccccc5)c5ccccc5)CC4)ccc3C2=O)C(=O)N1 (stereo not shown) [GT-05696, 3-(5-(2-(4-benzhydrylpiperazin-1-yl)ethyl)-1-oxoisoindolin-2-yl)piperidine-2,6-dione]	< 500 nM	–	50 to 100 nM	–	A (A represents 0% ≤ substrate protein remaining % ≤ 50%)	–	A (A represents 0% ≤ substrate protein remaining % ≤ 50%)	–	A (A represents 0% ≤ substrate protein remaining % ≤ 50%)	–	–
O=C1CCC(N2C(=O)c3ccc(CN4CCC(N(c5ccccc5)c5ccccc5)CC4)cc3C2=O)C(=O)N1 (stereo not shown) [GT-05741, 2-(2,6-dioxopiperidin-3-yl)-5-((4-(diphenylamino)piperidin-1-yl)methyl) isoindoline-1,3-dione]	–	50 to 100 nM	10 to 50 nM	–	A (A represents 0% ≤ substrate protein remaining % ≤ 50%)	–	A (A represents 0% ≤ substrate protein remaining % ≤ 50%)	–	A (A represents 0% ≤ substrate protein remaining % ≤ 50%)	–	100 to 500 nM
O=C1CCC(N2Cc3cc(CN4CCC(N(c5ccccc5)c5ccccc5)CC4)cc(F)c3C2=O)C(=O)N1 (stereo not shown) [GT-06133, 3-(5-((4-(diphenylamino)piperidin-1-yl)methyl)-7-fluoro-1-oxoisoindolin-2-yl)piperidine-2,6-dione]	< 500 nM	100 to 500 nM	10 to 50 nM	–	B (B represents substrate protein remaining % > 50%)	–	A (A represents 0% ≤ substrate protein remaining % ≤ 50%)	–	B (B represents substrate protein remaining % > 50%)	–	500 to 1000 nM
O=C1CCC(N2C(=O)c3ccc(C(=O)N4CCN(C(c5cccc(F)c5)c5cccc(F)c5)CC4)cc3C2=O)C(=O)N1 (stereo not shown) [GT-06206, 5-(4-(bis(3-fluorophenyl)methyl)piperazine-1-carbonyl)-2-(2,6-dioxopiperidin-3-yl) isoindoline-1,3-dione]	1000 to 1900 nM	–	–	–	B (B represents substrate protein remaining % > 50%)	–	A (A represents 0% ≤ substrate protein remaining % ≤ 50%)	–	B (B represents substrate protein remaining % > 50%)	–	–
O=C1CCC(N2C(=O)c3ccc(CN4CCN(C(c5cc(F)cc(F)c5)c5cc(F)cc(F)c5)CC4)cc3C2=O)C(=O)N1 (stereo not shown) [GT-06596, 5-((4-(bis(3,5-difluorophenyl)methyl)piperazin-1-yl)methyl)-2-(2,6-dioxopiperidin-3-yl) isoindoline-1,3-dione]	–	100 to 500 nM	50 to 100 nM	500 to 1000 nM	A (A represents 0% ≤ substrate protein remaining % ≤ 50%)	–	A (A represents 0% ≤ substrate protein remaining % ≤ 50%)	–	A (A represents 0% ≤ substrate protein remaining % ≤ 50%)	–	100 to 500 nM
